Source: patent US20230330093A1, “APPLICATION OF NITROGEN-CONTAINING SATURATED HETEROCYCLIC COMPOUND” (SHANGHAI PHARMACEUTICALS HOLDING CO., LTD., priority 2020, published 2023)
Several values for one entry are separate records, joined by “and”; a condition that tells them apart may be missing. Equal entries are not always repeated.

Columns and labels:
[1] = tested on: rhesus monkeys with spontaneous chronic kidney disease (CKD); experiment: Effect on UACR (proteinuria), 8-week oral administration; assay type: in vivo, Macaca mulatta (Rhesus Macaque); details: for UACR / MALB: per animal + Mean ± SD; for UACR Benefit assessment: per animal; for UACR change rate: 8 weeks vs baseline, negative = decrease
Description: CKD-EPI rating […]-G3b, glomerular filtration rate eGFR: 30 59 ml/min/1.73 m^2; or moderate to severe increase in proteinuria (A2-A3): urine albumin/creatinine ratio (UACR)>15 mg/g-350 mg/g (4-6 hour urine collection), vs. age-matched control group 3±2 mg/g. In the trial, animals were brought in three stages. […] ELISA kit was used for NT-proBNP test. [table]

[2] = tested on: rhesus monkeys with spontaneous chronic kidney disease; experiment: Effect on NT-proBNP (ELISA), 8-week administration; assay type: in vivo, Macaca mulatta (Rhesus Macaque)
Excerpt: In the trial, animals were brought in three stages. […] ELISA kit was used for NT-proBNP test. [table]

[3] = 1 mg/kg oral once a day, 8 weeks, mean
[4] = 1 mg/kg oral once a day, Baseline
[5] = 1 mg/kg oral once a day, Baseline, mean
[6] = 2 mg/kg oral once a day, 4 weeks
[7] = 2 mg/kg oral once a day, 4 weeks, mean
[8] = 2 mg/kg oral once a day, 8 weeks
[9] = 2 mg/kg oral once a day, 8 weeks, mean
[10] = 2 mg/kg oral once a day, Baseline
[11] = 2 mg/kg oral once a day, Baseline, mean
[12] = 5 mg/kg oral once a day, 8 weeks
[13] = 5 mg/kg oral once a day, 8 weeks, mean
[14] = 5 mg/kg oral once a day, Baseline
[15] = 5 mg/kg oral once a day, Baseline, mean

With `COC(=O)NCCCn1nc([C@@H](C)N(C(=O)[C@H]2CNCCO2)C2CC2)c2ccc(C)nc21.O=C(O)C[C@H](O)C(=O)O` [malate of compound of Formula I] the UACR ([1]; 1 mg/kg oral once a day, 8 weeks) was 20.0 mg/g and 32.5 mg/g and 3.1 mg/g and 2.6 mg/g and 6.1 mg/g, the MALB [1, 3] was 10.6 ± 15.8 mg/L and the UACR [1, 3] was 12.9 ± 13.0 mg/g. For the same molecule, the “UACR Benefit assessment” value ([1]; 1 mg/kg oral once a day, 8 weeks, listed as malate of compound of formula I) was “The benefit was not obvious in one case”, the MALB [1, 4] was 9.5 mg/L and 26.8 mg/L and 0.6 mg/L and 0.9 mg/L (2×) and the UACR [1, 4] was 32.8 mg/g and 30.0 mg/g and 2.9 mg/g and 1.6 mg/g and 4.1 mg/g. For the same molecule, the MALB [1, 5] was 7.7 ± 11.3 mg/L, the UACR [1, 5] was 14.3 mg/g and the “UACR of W8 decreased by, compared with the baseline” value ([1]; 1 mg/kg qd, one animal) was 39%. The MALB [1, 6] was 1.0 mg/L and 12.5 mg/L and 5.3 mg/L and 103.7 mg/L and 2.4 mg/L, the UACR [1, 6] was 3.1 mg/g and 7.9 mg/g and 12.7 mg/g and 92.9 mg/g and 3.6 mg/g and the MALB [1, 7] was 25.0 ± 44.2 mg/L. For the same molecule, the UACR [1, 7] was 24.0 mg/g, the “UACR change rate” value ([1]; 2 mg/kg oral once a day, per animal + Mean ± SD (3/5 animals in statistics, p < 0.01 vs placebo)) was −85.13% and −51.06% and −61.81% and the “UACR change rate” value ([1]; 2 mg/kg oral once a day, per animal + Mean ± SD (3/5 animals in statistics, p < 0.01 vs placebo), mean) was −66.00%. For the same molecule, the “UACR Benefit assessment” value [1, 8] was “Benefit”, the MALB [1, 8] was 3.0 mg/L and 0.4 mg/L and 0.6 mg/L and 69.5 mg/L and 3.6 mg/L and the UACR [1, 8] was 5.6 mg/g and 1.2 mg/g and 2.3 mg/g and 59.8 mg/g and 11.2 mg/g. The MALB [1, 9] was 15.4 ± 30.3 mg/L, the UACR [1, 9] was 16.0 ± 24.8 mg/g and the “UACR Benefit assessment” value ([1]; 2 mg/kg oral once a day, 8 weeks, listed as malate of compound of formula I) was “all showed benefits”. The MALB [1, 10] was 1.2 mg/L and 0.6 mg/L and 5.3 mg/L and 145.4 mg/L and 6.8 mg/L, the UACR [1, 10] was 3.5 mg/g and 2.5 mg/g and 15.3 mg/g and 122.1 mg/g and 29.3 mg/g and the MALB [1, 11] was 31.9 ± 63.5 mg/L. For the same molecule, the UACR [1, 11] was 34.5 mg/g, the “W8 UACR decreased by on average, compared with the baseline” value ([1]; 2 mg/kg qd, 3/5 animals with moderate to severe proteinuria, p<0.01 vs placebo) was 66.00±17.42% and the “UACR of W8 decreased by, compared with the baseline” value ([1]; 2 mg/kg qd, three animals) was 50%-80%. The UACR change rate ([1]; 5 mg/kg oral once a day, per animal + Mean ± SD (4/6 animals in statistics, p < 0.05 vs placebo)) was 16.75% and −64.10% and −68.62% and −72.14%, the UACR change rate ([1]; 5 mg/kg oral once a day, per animal + Mean ± SD (4/6 animals in statistics, p < 0.05 vs placebo), mean) was −46.87 ± 36.93 % and the “UACR Benefit assessment” value [1, 12] was “all showed benefits and One animal showed no benefit and No and Benefit”. For the same molecule, the MALB [1, 12] was 72.4 mg/L and 1.2 mg/L and 3.4 mg/L and 112.3 mg/L and 0.3 mg/L and 21.6 mg/L, the UACR [1, 12] was 138.4 mg/g and 5.7 mg/g and 9.1 mg/g and 87.7 mg/g and 1.8 mg/g and 35.1 mg/g and the MALB [1, 13] was 35.2 ± 46.7 mg/L. The UACR [1, 13] was 46.3 ± 55.4 mg/g, the MALB [1, 14] was 93.2 mg/L and 4.3 mg/L and 46.5 mg/L and 59.3 mg/L and 2.1 mg/L and 26.0 mg/L and the UACR [1, 14] was 118.5 mg/g and 10.5 mg/g and 25.4 mg/g and 279.3 mg/g and 2.4 mg/g and 125.8 mg/g. The MALB [1, 15] was 38.6 ± 35.0 mg/L, the UACR [1, 15] was 93.7 ± 105.9 mg/g and the “UACR of W8 decreased by, compared with the baseline” value ([1]; 5 mg/kg qd, 3 animals) was 60%-70%. For the same molecule, the “W8 UACR decreased by on average, compared with the baseline” value ([1]; 5 mg/kg qd, 4/6 animals with moderate-to-severe proteinuria, p<0.05 vs placebo) was 46.87±36.93%, the “effect on UACR and eGFRcreat-cys compared with Valsartan” value ([1]; 2-5 mg/kg qd for 8 weeks) was “equivalent to the Valsartan group” and the “proteinuria (UACR) improvement” value ([1]; 2-5 mg/kg qd for 8 weeks) was “can be significantly improved”. The NT-proBNP ([2]; 1 mg/kg (n = 5), Baseline, single animals and Mean ± SD) was 88 pg/mL and 299 pg/mL and 127 pg/mL and 203 pg/mL and 44 pg/mL, the NT-proBNP ([2]; 1 mg/kg (n = 5), Baseline, single animals and Mean ± SD, mean) was 152 ± 101 pg/mL and the NT-proBNP ([2]; 2 mg/kg (n = 5), Baseline, single animals and Mean ± SD) was 43 pg/mL and 155 pg/mL and 335 pg/mL and 46 pg/mL and 250 pg/mL. The NT-proBNP ([2]; 2 mg/kg (n = 5), Baseline, single animals and Mean ± SD, mean) was 166 ± 127 pg/mL, the NT-proBNP ([2]; 5 mg/kg (n = 6), 8 weeks) was 261 pg/mL and 146 pg/mL and 250 pg/mL and 197 pg/mL and 180 pg/mL and the NT-proBNP ([2]; 5 mg/kg (n = 6), 8 weeks, mean) was 231 ± 73 pg/mL. The NT-proBNP ([2]; 5 mg/kg (n = 6), Baseline, single animals and Mean ± SD) was 312 pg/mL and 88 pg/mL and 211 pg/mL and 432 pg/mL and 177 pg/mL and 162 pg/mL and the NT-proBNP ([2]; 5 mg/kg (n = 6), Baseline, single animals and Mean ± SD, mean) was 230 ± 123 pg/mL.
